Several values for one entry are separate records, joined by “and”; a condition that tells them apart may be missing. Equal entries are not always repeated. Where two headings read alike, the source gives them in different places.
Tests used:
SARS-CoV-2 nsp3-mac1 [1] = molecular target: T1, SARS-CoV-2 nsp3-mac1 (Severe acute respiratory syndrome coronavirus 2, UniProt P0DTD1); assay: biochemical; design: SARS-CoV-2 nsp3 macrodomain TR-FRET single point, per cent inhibition, n=2
SARS-CoV-2 nsp3-mac1 [2] = molecular target: T1, SARS-CoV-2 nsp3-mac1; assay: biochemical; conditions: for hill_slope: TR-FRET dose response curve fit; for perc_max_measured: highest measured response; for perc_min_measured: lowest measured response
SARS-CoV-2 nsp3-mac1 [3] = molecular target: T1, SARS-CoV-2 nsp3-mac1; assay: biochemical; type: biochemical; conditions: for perc_inhibition_mean: SARS-CoV-2 nsp3 macrodomain TR-FRET single point, concentration 50.0 uM
in vitro = conditions: human, hela-ace2 cells, 50.0
SARS-CoV-2 = assay: Antiviral effect in iPSC-derived pneumocyte system; type: cell-based; conditions: iPSC pneumocytes SARS-CoV-2 antiviral effect
[4] = system: SARS-CoV-2, isolate USA-WA1/2020; assay: microbe, parasite or virus in culture; type: cell-based; conditions: HeLa-ACE2 SARS-CoV-2 antiviral effect without P-gp inhibitor
iPSC pneumocytes = iPSC pneumocytes cytotoxicity; type: cell-based; conditions: protocol iPSC pneumocytes cytotoxicity
From the text: Supplement media-1.zip/Cytotoxicity.csv, table | column: cc10; cc50; perc_min_measured; perc_max_measured

[5] = TR-FRET dose response, supplement, read-out: ic50
[6] = HTRF IC50, Figure 4A, racemic mixture
[7] = IC50, nsp3-mac1 activity, Figures 1-3 and text
[8] = maximum measured response of dose series
[9] = minimum measured response of dose series

OC[C@@H](Nc1ncnc2[nH]c(I)cc12)c1ccccc1 [ASAP-0000197]
inhibition at 50 µM (SARS-CoV-2 nsp3-mac1 [1]; read-out: perc_inhibition_mean, batch_name=ASAP-0000197-001): 26.1%
hill_slope (SARS-CoV-2 nsp3-mac1 [2]): 1.082
perc_max_measured (SARS-CoV-2 nsp3-mac1 [2]; TR-FRET dose response): 42.06%
perc_min_measured (SARS-CoV-2 nsp3-mac1 [2]; TR-FRET dose response): -3.652%
IC50 (SARS-CoV-2 nsp3-mac1 [2]; [5]): > 124 µM
perc_inhibition_mean (SARS-CoV-2 nsp3-mac1 [3]): 26.134%

COc1ccc(C(Nc2ncnc3[nH]ccc23)C(C)C)cc1 (stereo not drawn) [ASAP-0000752]
IC50 (SARS-CoV-2 nsp3-mac1 [2]; [6]): 7.2 µM

O=C(c1cccc(Br)c1)N1CCC(c2ccn3ncc(C(=O)N4CCCCC4)c3c2)CC1 [ASAP-0000191]
inhibition at 50 µM (SARS-CoV-2 nsp3-mac1 [1]; read-out: perc_inhibition_mean, batch_name=ASAP-0000191-001): 32.1%
hill_slope (SARS-CoV-2 nsp3-mac1 [2]): 0.907
perc_max_measured (SARS-CoV-2 nsp3-mac1 [2]; TR-FRET dose response): 41.392%
perc_min_measured (SARS-CoV-2 nsp3-mac1 [2]; TR-FRET dose response): -0.981%
IC50 (SARS-CoV-2 nsp3-mac1 [2]; [5]): > 124 µM
perc_inhibition_mean (SARS-CoV-2 nsp3-mac1 [3]): 32.136%

c1nc(NC(c2ccc3c(c2)OCCO3)C2CCC2)c2cc[nH]c2n1 (stereo not drawn) [ASAP-0000866]
IC50 (SARS-CoV-2 nsp3-mac1 [2]; [6]): 5.8 µM

O=C(O)c1cscc1C(=O)N1CCC(c2ccn3ncc(C(=O)N4CCCCC4)c3c2)CC1 [ASAP-0000259]
IC50 (SARS-CoV-2 nsp3-mac1 [2]; [7]): 44 µM
inhibition at 50 µM (SARS-CoV-2 nsp3-mac1 [3]; read-out: perc_inhibition_mean): 47.7%
inhibition at 100 µM (SARS-CoV-2 nsp3-mac1 [3]; read-out: perc_inhibition_mean): 66.7%

FC(F)(F)C(Nc1ncnc2[nH]ccc12)c1ccc2c(c1)OCCO2 (stereo not drawn) [ASAP-0000870]
IC50 (SARS-CoV-2 nsp3-mac1 [2]; Figure 4A, racemic mixture, read-out: HTRF IC50): 19 µM

CC(C)C(Nc1ncnc2n[nH]cc12)c1cnn(C)c1 (stereo not drawn) [ASAP-0000031]
IC50 (SARS-CoV-2 nsp3-mac1 [2]; [7]): 43 µM
inhibition at 50 µM (SARS-CoV-2 nsp3-mac1 [3]; read-out: perc_inhibition_mean): 63.5%

CC(C)[C@@H](Nc1ncnc2[nH]c(-c3cnn(C)n3)cc12)c1ccc2c(c1)OCCO2 [ASAP-0008469]
CC50 at 24 h (in vitro): > 20 µM
EC50 (SARS-CoV-2): 13.3 µM
EC90 (SARS-CoV-2): 25.3 µM
perc_max_measured (SARS-CoV-2; [8]): 157.709%
perc_min_measured (SARS-CoV-2; [9]): 4.934%
perc_max_measured [4, 8]: 101.658% and 92.76%
perc_min_measured [4, 9]: 24.481% and 27.109%
EC50 ([4]; read-out: ec50): 5.33 µM and 6.65 µM
EC90 ([4]; read-out: ec90): > 20 µM
CC50 (HeLa-ACE2 cells): > 20 µM
cc10 (HeLa-ACE2 cells): > 20.0 µM
perc_max_measured (HeLa-ACE2 cells; protocol HeLa-ACE2 cytotoxicity, highest measured response of the dose series): 104.412% and 106.04%
perc_min_measured (HeLa-ACE2 cells; protocol HeLa-ACE2 cytotoxicity, lowest measured response of the dose series): 76.407% and 89.613%
perc_max_measured (iPSC pneumocytes; highest measured response of the dose series): 89.766%
perc_min_measured (iPSC pneumocytes; lowest measured response of the dose series): 75.657%

CC(C)C(Nc1ncnc2[nH]c(C(=O)NC3CCN(C)C3)cc12)c1ccc2c(c1)OCCO2 (stereo not drawn) [ASAP-0010747]
IC50 (SARS-CoV-2 nsp3-mac1 [2]; [6]): 0.46 µM

From paper doi:10.1101/2024.08.19.608619, “Discovery of potent SARS-CoV-2 nsp3 macrodomain inhibitors uncovers lack of translation to cellular antiviral response” (bioRxiv, 2024)
